Results taken from publication PMC8861095, “Neurotoxicological profile of the hallucinogenic compound 25I-NBOMe” (Scientific Reports, 2022).

Tests used:
[1] = test system: NeuN-, S100β- and IBA-1-immunopositive cells; assay: Immunohistochemistry with stereological count of cortical and hippocampal cells; type: in vivo, rat; conditions: chronic 0.3 mg/kg × 7 sc, 72 h, vs control
Description: (§1) Animals received single or multiple (once per day for seven days) subcutaneous injections of 25I-NBOMe dissolved in 0.9% NaCl at a dose of 0.3 mg/kg/2 ml. The control group was treated with 0.9% NaCl solution in the same way. All procedures were performed 72 h after the last injection. The time point of 72 h was chosen due to the possible generation of neurotoxicity via oxidative stress caused by reactive oxygen species (ROS). Exceptionally, for initial 25I-NBOMe brain distribution studies, rats received the drug in the dose of 1 and 10 mg/kg and were sacrificed 15 min after the drug administration. The rat blood plasma and brain tissues were collected immediately after rats’ decapitation. LSD (0.05 mg/kg, ip) was given daily for 7 days in a volume of 1 ml/kg, while MDMA 5 mg/kg, ip was injected in a volume of 2 ml/kg every second day (overall 4 injections).
Animals were deeply anesthetized and transcardially perfused with 0.9% NaCl followed by 4% paraformaldehyde (PFA) in 0.1 M phosphate-buffered saline (PBS). After 24 h of fixation in 4% PFA (4 °C), 300 µm sections were cut through the frontal cortex (FC) and medial prefrontal cortex (mPFC) as well as hippocampus using a VT-1000S vibratome (Leica Microsystems, Heidelberg, Germany). Free-floating sections were processed for single staining of neurons with neuronal-specific nuclear protein (NeuN), glia with specific calcium-binding protein B (S100β), and microglia cells with ionized calcium-binding adaptor molecule 1 (IBA-1) antibodies. Subsequently, brain sections were rinsed and incubated for 1 h in a blocking buffer: 0.01 M PBS containing 0.3% Triton X-100 and 5% average horse, goat, or rabbit serum. After that, the sections were incubated for 48 h at 4 °C with one of the following primary antibodies: monoclonal anti-NeuN (1:1000), monoclonal anti-S100β-subunit (1:1000) or polyclonal IBA-1 (1:500) diluted in 0.01 M PBS containing 0.3% Triton X-100 (PBST) and 3% average horse or goat serum. Primary antibody binding was visualized with biotinylated secondary antibodies, the Avidin/Biotin Complex (Vectastain Elite ABC Kit) according to recommended by manufacturer concentration and 3,3′-diaminobenzidine tetrahydrochloride (DAB, 10 mg/50 ml and 0.025% H2O2) solution to give a brown color to NeuN, S100β and IBA-1-immunoreactive cells. For data presentation, digital images were captured using a digital camera CX 9000 (Bioscience Microbrightfield, Inc., Germany) attached to a Leica microscope (CTR 6000) with 2.5 and 5.0 dry or 63 × and 100 × oil objectives (Leica) that was controlled by Stereo Investigator software (v.8.10.2, 1995–2007 Bioscience Microbrightfield, Inc., Germany). The final photomicrographs were composed using the Adobe Photoshop program. The numbers of NeuN-, S100β- and IBA-1-immunopositive cells in the analyzed brain regions were estimated using unbiased stereological methods[35],[36]. Briefly, every sixth section from the systematic random sampling along the rostrocaudal axis was analyzed with a 63 ×/1.4–0.7 lens using the Stereo Investigator stereology system software. The cells appearing in the upper focal plane were omitted to prevent the counting of cell caps (− 5 μm of the topmost surface of the section). Immunopositive cells were marked when they were within the optical dissectors, which comprised a focal plane of 1600 μm^2 × 15 μm. The total numbers of NeuN, S100β- and IBA-1-immunopositive cells in the FC, mPFC, and hippocampus were automatically calculated by the Stereo Investigator software. In addition, the volume of the cortical regions and hippocampus was calculated using the Cavalieri Estimator option of the Stereo Investigator software.

DNA = assay: Alkaline comet assay on nuclei from frontal cortex and hippocampus; type: in vivo, rat; conditions: for DNA damage (tail moment): single and repeated (× 7) 0.3 mg/kg sc, 72 h after administration, vs control
Description: as §1
The alkaline comet assay was performed with the use of CometAssay® Reagent Kit for Single Cell Gel Electrophoresis Assay. At 72 h after the acute and chronic treatment with 25I-NBOMe (0.3 mg/kg, sc × 7 days), LSD (0.05 mg/kg, ip × 7 days) or MDMA (5 mg/kg, ip × 4 doses every second day) animals were sacrificed by decapitation and the frontal cortex (that consist of the sum of FC and mPFC) and hippocampus were dissected. After homogenization and several purification and centrifugation stages (as described previously in[17]), the nuclear suspension was obtained using a sucrose gradient (2.8 M/2.6 M, bottom to top). The nuclear fraction was mixed with low melting point agarose and transferred immediately onto CometSlides™. The following steps, including membrane lysis, DNA unwinding, alkaline electrophoresis, and staining (SYBR® Gold), were carried out according to Trevigen CometAssay® protocol. Stained sections were acquired and analyzed under a fluorescence microscope (Nikon Eclipse50i, Japan) equipped with a camera and NIS Elements software. The data was analyzed using OpenComet software v.1.3 (cometbio.org), a plugin of ImageJ program v.1.47 (NIH, Bethesda, MD, USA). DNA damage was presented as a tail moment. Tail moment incorporates a measure of both the smallest detectable size of migrating DNA (reflected by the comet tail length) and the number of damaged pieces (represented by the intensity of DNA in the tail).

apoptosis = assay: TUNEL assay for apoptotic signal in brain slices; type: in vivo, rat; conditions: frontal cortex, anterior and posterior hippocampus; acute or chronic (× 7) 0.3 mg/kg; 72 h after treatment; qualitative
Description: as §1
As described above, animals were perfused transcardially and brains were fixed overnight in 4% PFA, then gradually dehydrated and stored in 70% ethanol (EtOH). Paraffin-embedded brain tissue was sectioned on a microtome (Leica, RM45) for 7-µm-thick sections. […] The apoptotic signal was assessed using Click-iT™ Plus TUNEL Assay for in situ apoptosis detection with Alexa Fluor™ 488 picolyl azide dye. […] Stained slides were examined under a fluorescence microscope (Nikon Eclipse50i, Japan) equipped with a camera and NIS Elements software.

H9c2 cells = conditions: in vitro; cited from earlier work
[2] = test system: primary mice cardiomyocytes; conditions: in vitro; cited from earlier work
QT interval = conditions: electrocardiography in rats; cited from earlier work
[3] = medial prefrontal cortex (mPFC)

## COc1cc(CCNCc2ccccc2OC)c(OC)cc1I [25I-NBOMe, 4-Iodo-2,5-dimethoxy-N-(2-methoxybenzyl)phenethylamine]
[1]; frontal cortex (FC)
  Number of IBA-1-immunopositive cells (microglia): significantly decreased
  Number of NeuN cells (neurons): did not notice any significant change
  Number of S100β-immunopositive cells (astrocytes): significantly decreased
[1]; hippocampal regions CA1, CA3/CA2 and dentate gyrus
  Number of neuronal and glial cells: did not show any changes
[1]; [3]
  Number of NeuN cells (neurons): did not notice any significant change
  Number of S100β-immunopositive cells (astrocytes): significant decrease
DNA; frontal cortex
  DNA damage (tail moment): produced DNA damage
DNA; hippocampus, 0.3 mg/kg sc × 7 vs single, 72 h
  DNA damage after multiple injections compared with a single dose: stronger than after a single dose
DNA; hippocampus
  DNA damage (tail moment): produced DNA damage
apoptosis
  Apoptotic signal (TUNEL): did not indicate apoptotic signal
H9c2 cells
  Cell viability: decreased the viability
[2]
  Cell viability: decreased the viability
QT interval
  QT interval: prolonged
